Assay results published in US11999699B2, “Substituted pyrazole amides” (GRUENENTHAL GMBH, priority 2021, dated 2024).
pIC50: −log10 of the molar value.

Molecular target: T1, human NaV1.8 (Homo sapiens, UniProt Q9Y5Y9)
T1 construct: The following NaV1.8 recombinant cell line was used for recordings: HEK-NaV1.8 (NM 006514.1); expressed in transfected cells; host or cells: HEK (recombinant cell line HEK-NaV1.8)
Experiment: Electrophysiology: automated whole-cell voltage-clamp (patch clamp, Qube384) recordings of sodium currents in HEK-NaV1.8 cells
Type: cell-based
Conditions: potency data either taken from inactivated or resting state, read-out: Potency category (human NaV1.8 IC50)
Summary of the method: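 Automated whole-cell patch clamp at room temperature on HEK cells expressing human NaV1.8, with 0.3% DMSO vehicle controls. State-dependent protocol from −120 mV tested resting (P1) and half-inactivated (P2, 4 s at V1/2) channels, plus 40-pulse trains at 10 and 20 Hz. Values after ~12 min compound exposure were normalised to baseline and corrected for vehicle run-down; IC50 from a 4-parameter logistic fit, taken from inactivated or resting state.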

T1 sequence (Q9Y5Y9 whole entry): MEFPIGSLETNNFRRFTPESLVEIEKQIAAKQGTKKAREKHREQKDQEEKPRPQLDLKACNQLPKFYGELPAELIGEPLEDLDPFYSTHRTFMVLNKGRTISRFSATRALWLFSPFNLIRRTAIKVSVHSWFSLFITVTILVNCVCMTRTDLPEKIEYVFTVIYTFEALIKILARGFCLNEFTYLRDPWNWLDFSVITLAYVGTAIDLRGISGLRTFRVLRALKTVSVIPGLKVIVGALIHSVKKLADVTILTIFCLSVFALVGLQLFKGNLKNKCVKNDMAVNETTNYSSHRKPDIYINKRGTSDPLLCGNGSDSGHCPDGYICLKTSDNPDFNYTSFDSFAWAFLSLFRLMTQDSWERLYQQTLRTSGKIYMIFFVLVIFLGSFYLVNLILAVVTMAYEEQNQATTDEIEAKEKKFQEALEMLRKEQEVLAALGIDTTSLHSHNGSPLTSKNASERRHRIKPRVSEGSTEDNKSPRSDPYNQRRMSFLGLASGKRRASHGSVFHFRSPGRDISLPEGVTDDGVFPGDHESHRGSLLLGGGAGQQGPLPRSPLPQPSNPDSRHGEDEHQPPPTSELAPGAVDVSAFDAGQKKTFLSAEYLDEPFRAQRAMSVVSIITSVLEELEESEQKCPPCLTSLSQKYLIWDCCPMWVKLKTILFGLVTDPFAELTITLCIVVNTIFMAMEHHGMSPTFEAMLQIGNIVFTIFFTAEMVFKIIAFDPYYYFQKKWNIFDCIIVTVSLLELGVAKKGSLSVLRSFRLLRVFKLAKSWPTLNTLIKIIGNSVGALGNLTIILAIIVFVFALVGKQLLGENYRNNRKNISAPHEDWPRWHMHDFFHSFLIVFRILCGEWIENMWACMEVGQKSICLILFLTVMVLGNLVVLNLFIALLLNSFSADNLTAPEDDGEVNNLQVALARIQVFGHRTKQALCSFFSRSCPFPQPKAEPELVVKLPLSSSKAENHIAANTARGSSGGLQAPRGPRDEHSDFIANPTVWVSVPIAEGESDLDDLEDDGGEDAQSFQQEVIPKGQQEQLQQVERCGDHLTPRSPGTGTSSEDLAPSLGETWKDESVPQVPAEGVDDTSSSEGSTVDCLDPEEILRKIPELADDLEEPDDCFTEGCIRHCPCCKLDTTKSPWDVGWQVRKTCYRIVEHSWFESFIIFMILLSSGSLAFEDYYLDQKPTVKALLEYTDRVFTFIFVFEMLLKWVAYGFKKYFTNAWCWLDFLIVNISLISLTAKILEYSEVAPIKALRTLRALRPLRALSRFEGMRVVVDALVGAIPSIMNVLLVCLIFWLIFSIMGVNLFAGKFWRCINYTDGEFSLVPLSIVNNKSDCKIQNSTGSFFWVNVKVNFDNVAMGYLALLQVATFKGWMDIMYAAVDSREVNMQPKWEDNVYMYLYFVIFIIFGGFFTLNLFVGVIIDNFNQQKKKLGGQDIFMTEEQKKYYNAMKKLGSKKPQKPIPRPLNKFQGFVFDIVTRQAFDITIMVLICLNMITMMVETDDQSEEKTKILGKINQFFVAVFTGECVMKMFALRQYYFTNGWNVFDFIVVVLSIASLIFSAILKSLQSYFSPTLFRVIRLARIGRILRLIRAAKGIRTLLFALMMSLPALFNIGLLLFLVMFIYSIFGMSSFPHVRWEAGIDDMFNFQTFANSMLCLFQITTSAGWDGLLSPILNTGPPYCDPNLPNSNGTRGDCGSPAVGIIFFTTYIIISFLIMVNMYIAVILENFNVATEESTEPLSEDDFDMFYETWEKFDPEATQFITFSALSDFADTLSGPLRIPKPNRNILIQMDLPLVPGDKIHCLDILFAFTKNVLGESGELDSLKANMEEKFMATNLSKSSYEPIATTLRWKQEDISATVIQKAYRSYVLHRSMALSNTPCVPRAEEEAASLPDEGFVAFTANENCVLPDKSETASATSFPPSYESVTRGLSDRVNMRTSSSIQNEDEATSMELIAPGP
T1 sequence (Q9NY72 23-215 partner): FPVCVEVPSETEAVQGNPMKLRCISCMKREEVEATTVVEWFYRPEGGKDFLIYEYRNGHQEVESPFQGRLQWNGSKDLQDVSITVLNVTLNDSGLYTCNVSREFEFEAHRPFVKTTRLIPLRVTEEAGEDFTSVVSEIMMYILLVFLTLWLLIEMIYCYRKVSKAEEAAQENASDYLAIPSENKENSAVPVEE

Row | pIC50 | Structure (SMILES)
1 | ≥ 7.00 | NS(=O)(=O)c1cccc(NC(=O)c2c(C(F)(F)F)cnn2CC2CCCC2(F)F)c1 (stereo not shown) [SC-235, 1-((2,2-difluorocyclopentyl)methyl)-N-(3-sulfamoylphenyl)-4-(trifluoromethyl)-1H-pyrazole-5-carboxamide]
2 | 6.00 to 7.00 | Cc1c([C@@H](C)C(F)(F)F)nn(CC2CC(F)(F)C2)c1C(=O)Nc1ccnc(C(N)=O)c1 [SC-188a]
3 | 5.00 to 6.00 | Cc1cc(C(=O)Nc2cccc(S(C)(=O)=O)c2)n(CC2CCCCC2)n1 [SC-11, 2-(cyclohexylmethyl)-5-methyl-N-(3-methylsulfonylphenyl)pyrazole-3-carboxamide]
4 | ≥ 7.00 | Cc1c(C(C)(F)F)nn(CC2CC(F)(F)C2)c1C(=O)Nc1ccnc(C(N)=O)c1 [SC-161, 4-(1-((3,3-difluorocyclobutyl)methyl)-3-(1,1-difluoroethyl)-4-methyl-1H-pyrazole-5-carboxamido)picolinamide]
5 | 5.00 to 6.00 | CS(=O)(=O)c1cccc(NC(=O)c2c(C(F)(F)F)cnn2CC2CCC(F)(F)CC2)c1F [SC-16, 2-[(4,4-difluorocyclohexyl)methyl]-N-(2-fluoro-3-methylsulfonylphenyl)-4-(trifluoromethyl)pyrazole-3-carboxamide]
6 | ≥ 7.00 | Cc1c(C(C)(F)F)nn(CC2(C)CCC(F)(F)C2)c1C(=O)Nc1ccnc(S(C)(=O)=O)c1 (stereo not drawn) [SC-213, 1-((3,3-difluoro-1-methyleyclopentyl)methyl)-3-(1,l-difluoroethyl)-4-methyl-N-(2-(methylsulfonyl)pyridin-4-yl)-1H-pyrazole-5-carboxamide]
7 | ≥ 7.00 | NC(=O)c1cc(NC(=O)c2c(C(F)(F)F)c(C3CC3)nn2CC2CCC(F)(F)C2)ccn1 (single isomer, unassigned) [SC-129a]
8 | 6.00 to 7.00 | Cc1c(C(C)(F)F)nn(C[C@@]2(C)CCCCO2)c1C(=O)Nc1ccnc(S(N)(=O)=O)c1 (single isomer, unassigned) [SC-312b]
9 | 6.00 to 7.00 | CS(=O)(=O)c1cccc(NC(=O)c2cc(C(F)(F)F)nn2CC2CCCC2)c1 [SC-03, 2-(cyclopentylmethyl)-N-(3-methylsulfonylphenyl)-5-(trifluoromethyl)pyrazole-3-carboxamide]
10 | ≥ 7.00 | Cc1c(C(C)(F)F)nn(C[C@@H]2CC[C@H]2C(F)(F)F)c1C(=O)Nc1ccnc(C(N)=O)c1 (single isomer, unassigned) [SC-315b]
11 | ≥ 7.00 | CCOc1nn(CC2CCC(F)(F)C2)c(C(=O)Nc2ccnc(C(N)=O)c2)c1C(F)(F)F (stereo not shown) [SC-156, 4-(1-((3,3-difluorocyclopentyl)methyl)-3-ethoxy-4-(trifluoromethyl)-1H-pyrazole-5-carboxamido)picolinamide]
12 | 6.00 to 7.00 | CS(=O)(=O)n1cc(NC(=O)c2c(C(F)(F)F)cnn2CC2CCCCC2)cn1 [SC-36, 2-(cyclohexylmethyl)-N-(1-methylsulfonylpyrazol-4-yl)-4-(trifluoromethyl)pyrazole-3-carboxamide]
13 | ≥ 7.00 | NC(=O)c1cc(NC(=O)c2c(C(F)(F)F)c(C3CC3)nn2CC2CCCOC2)ccn1 (single isomer, unassigned) [SC-145a, 4-(3-Cyclopropyl-1-((tetrahydro-2H-pyran-3-yl)methyl)-4-(trifluoromethyl)-1H-pyrazole-5-carboxamido)picolinamide]
14 | ≥ 7.00 | NC(=O)c1cc(NC(=O)c2c(C(F)(F)F)c(C3CC3)nn2CC2CCC2(F)F)ccn1 (single isomer, unassigned) [SC-154b, 4-(3-cyclopropyl-1-((2,2-difluorocyclobutyl)methyl)-4-(trifluoromethyl)-1H-pyrazole-5-carboxamido)picolinamide]
15 | ≥ 7.00 | CS(=O)(=O)c1cc(NC(=O)c2c(C(F)(F)F)c(C3CC3)nn2C[C@@H]2CCO[C@@H]2C(F)(F)F)ccn1 (single isomer, unassigned) [SC-150a]
16 | 6.00 to 7.00 | O=C(Nc1ccnc(O)c1)c1c(C(F)(F)F)cnn1CC1CCCCCC1 [SC-31, 2-(cycloheptylmethyl)-N-(2-hydroxypyridin-4-yl)-4-(trifluoromethyl)pyrazole-3-carboxamide]
17 | 6.00 to 7.00 | CS(=O)(=O)c1cccc(NC(=O)c2c(C(F)(F)F)cnn2CC2CCCC2)c1 [SC-25, 2-(cyclopentylmethyl)-N-(3-methylsulfonylphenyl)-4-(trifluoromethyl)pyrazole-3-carboxamide]
18 | ≥ 7.00 | Cc1c(C(C)(F)F)nn(CC2(C)CC(F)(F)C2)c1C(=O)Nc1ccnc(S(N)(=O)=O)c1 [SC-209, 1-((3,3-difluoro-1-methylcyclobutyl)methyl)-3-(1,1-difluoroethyl)-4-methyl-N-(2-sulfamoylpyridin-4-yl)-1H-pyrazole-5-carboxamide]
19 | 6.00 to 7.00 | CS(=O)(=O)c1cccc(NC(=O)c2cc(C#N)nn2CC2CCCCC2)c1 [SC-38, 5-cyano-2-(cyclohexylmethyl)-N-(3-methylsulfonylphenyl)pyrazole-3-carboxamide]

Row | pIC50 | Structure (SMILES)
20 | 6.00 to 7.00 | Cc1nn(CC2CCC(F)(F)CC2)c(C(=O)Nc2cccc(S(C)(=O)=O)c2)c1C [SC-44, 2-[(4,4-difluorocyclohexyl)methyl]-4,5-dimethyl-N-(3-methylsulfonylphenyl)pyrazole-3-carboxamide]
21 | 6.00 to 7.00 | COc1c(C(C)(F)F)nn(CC2CCC(F)(F)C2)c1C(=O)Nc1ccnc(C(N)=O)c1 (single isomer, unassigned) [SC-271b]
22 | ≥ 7.00 | NS(=O)(=O)c1cccc(NC(=O)c2c(C(F)(F)F)c(C3CC3)nn2CC2CCCCO2)c1 (stereo not shown) [SC-264, 3-cyclopropyl-N-(3-sulfamoylphenyl)-1-((tetrahydro-2H-pyran-2-yl)methyl)-4-(trifluoromethyl)-1H-pyrazole-5-carboxamide]
23 | ≥ 7.00 | NC(=O)c1cc(NC(=O)c2c(C(F)(F)F)c(C3CC3)nn2CC2CC2)ccn1 [SC-266, 4-(3-cyclopropyl-1-(cyclopropylmethyl)-4-(trifluoromethyl)-1H-pyrazole-5-carboxamido)picolinamide]
24 | ≥ 7.00 | NS(=O)(=O)c1cccc(NC(=O)c2c(C(F)(F)F)c(C3CC3)nn2CC2CCC(F)(F)CC2)c1 [SC-230, 3-cyclopropyl-1-((4,4-difluorocyclohexyl)methyl)-N-(3-sulfamoylphenyl)-4-(trifluoromethyl)-lH-pyrazole-5-carboxamide]
25 | ≥ 7.00 | NC(=O)c1cc(NC(=O)c2c(C(F)(F)F)c(C3CC3)nn2C[C@@H]2CO[C@H](C(F)(F)F)C2)ccn1 (single isomer, unassigned) [SC-148a]
26 | ≥ 7.00 | Cc1c(C(C)(F)F)nn(CC2(C(F)(F)F)CC(F)(F)C2)c1C(=O)Nc1ccnc(C(N)=O)c1 [SC-299, 4-(1-((3,3-difluoro-1-(trifluoromethyl)cyclobutyl)methyl)-3-(1,1-difluoroethyl)-4-methyl-1H-pyrazole-5-ca±oxamido)picolinamide]
27 | ≥ 7.00 | NC(=O)c1cc(NC(=O)c2c(C(F)(F)F)c(C3CC3)nn2CC2CC(F)(F)C2(F)F)ccn1 (single isomer, unassigned) [SC-291a]
28 | 5.00 to 6.00 | Cc1nn(CC2CCCCC2)c(C(=O)Nc2cc[nH]c(=O)c2)c1C [SC-07, 1-(cyclohexylmethyl)-3,4-dimethyl-N-(2-oxo-1,2-dihydropyridin-4-yl)-1H-pyrazole-5-carboxamide]
29 | 6.00 to 7.00 | Cc1c(OC(F)F)nn(CC2CC(F)(F)C2)c1C(=O)Nc1ccnc(S(C)(=O)=O)c1 [SC-323, 1-((3,3-difluorocyclobutyl)methyl)-3-(difluoromethoxy)-4-methyl-N-(2-(methylsulfonyl)pyridin-4-yl)-1H-pyrazole-5-carboxamide]
30 | 6.00 to 7.00 | NC(=O)c1cc(NC(=O)c2c(C(F)(F)F)cnn2CC2CCC(F)(F)CC2)ccc1F [SC-39, N-(3-carbamoyl-4-fluorophenyl)-2-[(4,4-difluorocyclohexyl)methyl]-4-(trifluoromethyl)pyrazole-3-carboxamide]
31 | 5.00 to 6.00 | CC(C1CCCCC1)n1ncc(C(F)(F)F)c1C(=O)Nc1ccnc(O)c1 (stereo not shown) [SC-32, 2-(1-cyclohexylethyl)-N-(2-hydroxypyridin-4-yl)-4-(trifluoromethyl)pyrazole-3-carboxamide]
32 | 5.00 to 6.00 | CS(=O)(=O)c1cccc(NC(=O)c2cc(C(F)(F)F)nn2CC2CCOCC2)c1 [SC-04, N-(3-methylsulfonylphenyl)-2-(oxan-4-ylmethyl)-5-(trifluoromethyl)pyrazole-3-carboxamide]
33 | 5.00 to 6.00 | CS(=O)(=O)c1cc(F)cc(NC(=O)c2c(C(F)(F)F)cnn2CC2CCC(F)(F)CC2)c1 [SC-42, 2-[(4,4-difluorocyclohexyl)methyl]-N-(3-fluoro-5-methylsulfonylphenyl)-4-(trifluoromethyl)pyrazole-3-carboxamide]
34 | ≥ 7.00 | CS(=O)(=O)c1cc(NC(=O)c2c(C(F)(F)F)c(C3CC3)nn2CC2CCC(F)(F)CC2)ccn1 [SC-250, 3-cyclopropyl-1-((4,4-difluorocyclohexyl)methyl)-N-(2-(methylsulfonyl)pyridin-4-yl)-4-(trifluoromethyl)-1H-pyrazole-5-carboxamide]
35 | ≥ 7.00 | Cc1c(C(C)(F)F)nn(CC2(C(F)(F)F)CC(F)(F)C2)c1C(=O)Nc1ccnc(S(C)(=O)=O)c1 [SC-220, 1-((3,3-difluoro-1-(trifluoromethyl)cyclobutyl)methyl)-3-(1,l-difluoroethyl)-4-methyl-N-(2-(methylsulfonyl)pyridin-4-yl)-1H-pyrazole-5-carboxamide]
36 | 6.00 to 7.00 | Cc1cc(NC(=O)c2c(C(F)(F)F)c(C)nn2CC2CCC(F)(F)CC2)ccn1 [SC-252, 1-((4,4-difluorocyclohexyl)methyl)-3-methyl-N-(2-methylpyridin-4-yl)-4-(trifluoromethyl)-1H-pyrazole-5-carboxamide]
37 | 5.00 to 6.00 | CC(C)c1cnn(CC2CCCCC2)c1C(=O)Nc1cccc(S(C)(=O)=O)c1 [SC-18, 2-(cyclohexylmethyl)-N-(3-methylsulfonylphenyl)-4-propan-2-ylpyrazole-3-carboxamide]
